Data as given in patent US6716851B2, “Substituted 2-aryl-4-arylaminopyrimidines and analogs as activators or caspases and inducers of apoptosis and the use thereof” (Cytovia, Inc., priority 2000, dated 2004).

What was measured:
[1] = system: T-47D cells; assay: Caspase cascade activation (N-(Ac-DEVD)-N'-ethoxycarbonyl-R110 fluorogenic substrate) in T-47D cells; assay type: cell-based, Human; details: 48 h incubation
Outline: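 Cells (0.65×10^6/ml) exposed 48 h at 37 °C to compound (0.016-10 μM final), then lysed with 14 μM DEVD-R110 substrate buffer (PIPES pH 7.2, DTT, lysolecithin) for 3 h at room temperature. Net fluorescence (485/530 nm) relative to control; EC50 by sigmoidal dose-response.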

[2] = system: T-47D cells; assay: Cell cycle arrest and apoptosis by propidium iodide flow cytometry in T-47D cells; assay type: cell-based, Human; details: 48 h
Procedure: T-47D, a breast cancer cell line, was maintained and harvested as described in Example 221. 5×10^5 Cells were treated with 0.2 μM of 4-(3-methoxyanilino)-2-(2-pyridinyl)-6-(trifluoromethyl)pyrimidine for 48 h at 37° C. As a control, cells were also incubated with equivalent amount of solvent (DMSO). Cells were harvested at 1,200 rpm and then transferred to 12×75 mm polystyrene tubes. Cells were then resuspended in 500 μl of 1% Na Citrate, 0.1% Triton X-100, and 50 μg/ml of propidium iodide and incubated at room temperature for 30 min followed by flow cytometer analysis. All flow cytometry analyses were performed on FACScalibur (Becton Dickinson) using Cell Quest analysis software. The x-axis plotted the amount of fluorescence and the y-axis is plotted the number of cells with the indicated fluorescence. The T-47D control cell population profile is seen in FIG. 1A and the increase in G2/M DNA content cells that is seen when treated with 4-(3-methoxyanilino)-2-(2-pyridinyl)-6-(trifluoromethyl)pyrimidine at 0.2 μM is seen in FIG. 1B. An increase in the sub-diploid DNA content of cells (FIG. 1) is also seen to increase from 2% to 25% with compound treatment. The sub-diploid amount of DNA is indicative of apoptotic cells which have undergone DNA degradation or fragmentation.

COc1cccc(Nc2cc(C(F)(F)F)nc(-c3ccccn3)n2)c1 [Compound A, 4-(3-methoxyanilino)-2-(2-pyridinyl)-6-(trifluoromethyl)pyrimidine]
EC50 ([1]; Homo sapiens, T47D, caspase activation potency, read-out: T47 EC50): 433 nM
T47 Ratio 48 hr ([1]; caspase activity: ratio of net RFU of test compound to control): 29.3
sub-diploid DNA content of cells ([2]; 0.2 μM, control 2%): 25%
G1 population ([2]; 200 nM, versus control cells): reduction
G2/M population (G2/M DNA content cells) ([2]; 200 nM, versus control cells): increase
